# “And” between values parts separate entries of the source, which are not always exact repeats. Equal values may be shown once. Where a name gives a salt, the structure may show the parent alone.
# Key:
# [1] = tested on: Adult male Wistar rats; assay: Tail-flick latency; type: in vivo, rat; details: for decrease in potency when moving from i.p. to p.o. route of administration: analgesia, i.p. vs p.o.; for peak analgesia: tail-flick
# [2] = tested on: brain CYP2D; details: 24 hr i.c.v. propranolol pretreatment, pilot microdialysis study, tramadol p.o.
# [3] = tested on: brain CYP2D; details: 24 hr i.c.v. propranolol pretreatment, pilot study
# [4] = tested on: Adult male Wistar rats; details: tramadol 40 mg/kg i.p.; ref Wang et al., 2015; cited from earlier work
# [5] = oral tramadol; ref Nobilis et al., 2002, Ong et al., 2005; cited from earlier work
# [6] = tested on: brain CYP2D; details: seven-day subcutaneous nicotine; ref McMillan and Tyndale, 2015; cited from earlier work
# [7] = tested on: brain CYP2D; details: seven-day subcutaneous nicotine; ref McMillan and Tyndale, 2015; cited from earlier work; remark: listed apart in the source
smiles,measurement,setting,value
COc1ccc2c3c1O[C@H]1[C@@H](O)C=C[C@H]4[C@@H](C2)N(C)CC[C@@]341 [codeine],decrease in potency when moving from i.p. to p.o. route of administration,[1],2.5 – 10 fold
"CC(C)NCC(O)COc1cccc2ccccc12 (stereo not drawn) [propranolol, Propranolol hydrochloride]","effect on brain levels of tramadol, ODSMT and NDSMT",[2],increased
same,effect on analgesia after tramadol p.o.,[3],increase in analgesia
"COc1cccc(C2(O)CCCCC2CN(C)C)c1 (stereo not drawn) [tramadol, Tramadol hydrochloride]","overall analgesic response, AUC 0–60 min (published)",[4],1740 %MPE*min
same,peak analgesia (published),[4],approximately 52 % MPE
same,time to peak analgesia (published),[4],45 min post-injection
same,fraction of a tramadol dose undergoing first-pass metabolism,[5],30%
same,decrease in potency when moving from i.p. to p.o. route of administration,[1],2.5 – 10 fold and 2.5 fold
same,"overall analgesic response, AUC 0–60 min",[1]; tramadol 40 mg/kg i.p.,2840 %MPE*min
same,time to peak analgesia,[1]; tramadol 40 mg/kg i.p.,50 min post-injection
same,peak analgesia,[1]; tramadol 40 mg/kg i.p.,65 % MPE
same,peak analgesia,[1]; tramadol 100 mg/kg p.o.,74 % MPE
CN1CC[C@]23c4c5ccc(O)c4O[C@H]2[C@@H](O)C=C[C@H]3[C@H]1C5 [morphine],decrease in potency when moving from i.p. to p.o. route of administration,[1],2.5 – 10 fold
CN1CCC[C@H]1c1cccnc1 [nicotine],"increase in codeine-induced antinociception, tail-flick reflex AUC0–30 min",[6],1.6 fold
same,"increase in codeine-induced antinociception, hot-plate test AUC",[7],2.5 fold

# — publication PMC8262591 (Brain research bulletin, 2020)
